Counter-ions that a name gives are not always drawn. Like-named read-outs stand apart in the source and are kept apart here.
Legend:
[1] = cited from earlier work
[2] = test system: primary human hepatocytes (PHH) 3D spheroids
PHH 2D sandwich cultures = conditions: cited from earlier work; for hepatotoxicity detection in 2D sandwich cultures of PHH: 100× cmax, 24 h, high content imaging; for hepatotoxicity detection in 2D sandwich cultures of PHH / reactive oxygen species levels in 2D sandwich cultures of PHH: ref Xu et al., 2008
clinical DILI in man = conditions: in vivo; cited from earlier work
[3] = therapeutic total cmax, ref PMID
[4] = PHH 2D sandwich cultures, 100x Cmax, ref Xu 2008

SMILES | Cmax [1, 3] [nM] | Chemically defined spheroids (this study) 20x [2] | Classified as (clinical DILI in man) | Clinical DILI class (panel heading of Figure 4) (clinical DILI in man) | DILI in vivo (clinical DILI in man) | Type of DILI (clinical DILI in man) | 2Dsw (Xu 2008) 100x (PHH 2D sandwich cultures; [4]) | other results
C=C[C@H]1C[N@@]2CC[C@H]1C[C@@H]2[C@@H](O)c1ccnc2ccc(OC)cc12 [Quinidine] | 8660 | Positive | – | – | – | – | – | 2Dsw (Xu 2008) 100x (PHH 2D sandwich cultures): Positive
Cc1cccc(C)c1OCC(C)N (stereo not drawn) [Mexiletine] | 35000 | Positive | POS | High DILI concern | POS | Hepatocellular injury or Mixed hepatitis | – | FDA (0-8) (clinical DILI in man): 3; FDA (Severity) (clinical DILI in man): less DILI concern; Suzuki et al. (2010) (clinical DILI in man): 1; Xu et al. (2008) (clinical DILI in man): Positive; 2Dsw (Xu 2008) 100x (PHH 2D sandwich cultures): Positive
O=c1ccc2ccccc2o1 [Coumarin] | 10000 | Positive | POS | High DILI concern | POS | Cholestatic injury | – | –
NS(=O)(=O)c1cc(C(=O)O)c(NCc2ccco2)cc1Cl [Furosemide] | – | – | – | – | – | – | Negative | –
Clc1ccc(COC(Cn2ccnc2)c2ccc(Cl)cc2Cl)c(Cl)c1 (stereo not drawn) [Miconazole] | 24 | Negative | – | – | – | – | – | –
O=C(O)c1cc(/N=N/c2ccc(S(=O)(=O)Nc3ccccn3)cc2)ccc1O [Sulfasalazine] | 15100 | Positive | – | – | – | – | – | –
CC(N/C(=N\C#N)Nc1ccncc1)C(C)(C)C (stereo not drawn) [Pinacidil] | 290 | Negative | NEG | DILI negative | NEG | Non-hepatotoxic | Negative | –
CC(=O)Nc1ccc(OCC(O)CNC(C)C)cc1 (stereo not drawn) [Practolol] | 18800 | Negative | – | – | – | – | – | –
CC(C)NCC(O)COc1ccc(CC(N)=O)cc1 (stereo not drawn) [Atenolol] | – | – | – | – | – | – | Negative | –
CCC(=O)OCC(=O)[C@@]1(OC(=O)CC)[C@@H](C)C[C@H]2[C@@H]3CCC4=CC(=O)C=C[C@]4(C)[C@@]3(Cl)[C@@H](O)C[C@@]21C [Beclomethasone Dipropionate] | 0.15 | Negative | – | – | – | – | – | –
NC12CC3CC(CC(C3)C1)C2 [Amantadine] | 4300 | Negative | NEG | DILI negative | NEG | Non-hepatotoxic | – | FDA (0-8) (clinical DILI in man): 3; FDA (Severity) (clinical DILI in man): less DILI concern; Xu et al. (2008) (clinical DILI in man): Negative; 2Dsw (Xu 2008) 100x (PHH 2D sandwich cultures): Negative
CC(C)NCC(O)COc1cccc2[nH]ccc12 (stereo not drawn) [Pindolol] | 270 | – | NEG | DILI negative | NEG | Non-hepatotoxic | Negative | FDA (0-8) (clinical DILI in man): 0; Xu et al. (2008) (clinical DILI in man): Negative
CN(C)CCC(c1ccc(Br)cc1)c1ccccn1 (stereo not drawn) [Brompheniramine Maleate] | 27 | Negative | – | – | – | – | – | –
C[C@]12CCC(=O)C=C1CC[C@@H]1[C@@H]2[C@@H](O)C[C@@]2(C)[C@H]1CC[C@]2(O)C(=O)CO [Hydrocortisone] | 840 | Negative | NEG | DILI negative | NEG | Non-hepatotoxic | Negative | FDA (0-8) (clinical DILI in man): 0; Xu et al. (2008) (clinical DILI in man): Negative
CCCSc1ccc2nc(NC(=O)OC)[nH]c2c1 [Albendazole] | 900 | Negative | POS | Severe DILI | POS | Cholestatic injury or Mixed hepatitis | Positive | FDA (0-8) (clinical DILI in man): 7; Suzuki et al. (2010) (clinical DILI in man): 1; Xu et al. (2008) (clinical DILI in man): Positive; hepatotoxicity evaluation in CD-spheroids [2]: predicted to be DILI negative; hepatotoxicity detection in 2D sandwich cultures of PHH (PHH 2D sandwich cultures): flagged as hepatotoxic; reactive oxygen species levels in 2D sandwich cultures of PHH (PHH 2D sandwich cultures): only slight increases in reactive oxygen species levels
CN1CCN(CCCN2c3ccccc3Sc3ccc(C(F)(F)F)cc32)CC1 [Trifluoperazine] | 4.5 | Negative | POS | High DILI concern | POS | Cholestatic injury or Mixed hepatitis | Positive | FDA (0-8) (clinical DILI in man): 2; FDA (Severity) (clinical DILI in man): less DILI concern; O'Brien et al. (2003) (clinical DILI in man): Moderately; Xu et al. (2008) (clinical DILI in man): Positive; hepatotoxicity evaluation in CD-spheroids [2]: predicted to be DILI negative; hepatotoxicity detection in 2D sandwich cultures of PHH (PHH 2D sandwich cultures): flagged as hepatotoxic; reactive oxygen species levels in 2D sandwich cultures of PHH (PHH 2D sandwich cultures): only slight increases in reactive oxygen species levels
CCN(CC)C(=O)N1CCN(C)CC1 [Diethylcarbamazine] | 1630 | Negative | – | – | – | – | – | –
CCN(CC)C(=S)SSC(=S)N(CC)CC [Disulfiram] | 1350 | Positive | – | – | – | – | – | –
CN(C)[C@@H]1C(O)=C(C(N)=O)C(=O)[C@@]2(O)C(O)=C3C(=O)c4c(O)cccc4[C@@](C)(O)[C@H]3C[C@@H]12 [Tetracycline] | – | – | POS | High DILI concern | POS | Hepatocellular injury | – | FDA (0-8) (clinical DILI in man): 2; FDA (Severity) (clinical DILI in man): less DILI concern; Guo et al. (2005) (clinical DILI in man): 3; O'Brien et al. (2003) (clinical DILI in man): Moderately; Sakatis et al. (2012) (clinical DILI in man): Hepatotoxic; Suzuki et al. (2010) (clinical DILI in man): 1; Xu et al. (2008) (clinical DILI in man): Positive
N[C@@H](Cc1ccc(O)c(O)c1)C(=O)O [Levodopa] | 6850 | Negative | – | – | – | – | Negative | –
CC(=O)CC(c1ccccc1)c1c(O)c2ccccc2oc1=O (stereo not drawn) [Warfarin] | 4860 | Negative | – | – | – | – | – | –
CN(C)CCCN1c2ccccc2CCc2ccc(Cl)cc21 [Clomipramine] | – | Positive | – | – | – | – | – | hepatotoxicity detection in 2D sandwich cultures of PHH (PHH 2D sandwich cultures): liver toxicity was not recognized
N=C(N)NC(=O)c1nc(Cl)c(N)nc1N [Amiloride] | 87 | Negative | NEG | DILI negative | NEG | Non-hepatotoxic | – | FDA (0-8) (clinical DILI in man): 3; Suzuki et al. (2010) (clinical DILI in man): 2; Xu et al. (2008) (clinical DILI in man): Negative; 2Dsw (Xu 2008) 100x (PHH 2D sandwich cultures): Negative
CN(C)C(=O)C(CCN1CCC(O)(c2ccc(Cl)cc2)CC1)(c1ccccc1)c1ccccc1 [Loperamide] | – | – | – | – | – | – | – | Cmax ([1]; human, in vivo): 7.8 nM
COc1ccc([C@@H]2Sc3ccccc3N(CCN(C)C)C(=O)[C@@H]2OC(C)=O)cc1 [Diltiazem] | 327 | Negative | – | – | – | – | – | –
COCCOC(=O)C1=C(C)NC(C)=C(C(=O)OC(C)C)C1c1cccc([N+](=O)[O-])c1 (stereo not drawn) [Nimodipine] | 110 | Positive | – | – | – | – | Positive | –
NCCCC[C@H](N[C@@H](CCc1ccccc1)C(=O)O)C(=O)N1CCC[C@H]1C(=O)O [Lisinopril] | 660 | Positive | – | – | – | – | – | hepatotoxicity detection in 2D sandwich cultures of PHH (PHH 2D sandwich cultures): liver toxicity was not recognized
COC(=O)C1=C(C)NC(C)=C(C(=O)OCCN(C)Cc2ccccc2)C1c1cccc([N+](=O)[O-])c1 (stereo not drawn) [Nicardipine] | 80 | – | – | – | – | – | – | –
